Measured values: patent US20230087766A1, “METHODS OF REACTIVATING LATENT HUMAN IMMUNODEFICIENCY VIRUS AND RELATED COMPOSITIONS” (priority 2017, published 2023)

Assays:
Type in all cases: cell-based
[1] = system: latent HIV (HIV LTR-driven transcription) in J-Lat A1 cells; settings: for reactivation of latent HIV by epigenetic modifiers: 30 mM Na-Cro, 500 nM SAHA, 2 μM GSK343 or 5 μM AZA-dc; for reactivation of latent HIV by epigenetic modifiers / increase in reactivation of latent HIV in combination with Na-Cro as compared to single treatment: RT-qPCR; for increase in reactivation of latent HIV in combination with Na-Cro as compared to single treatment: J-Lat A1 cells pretreated with Na-Cro, then the LRA added
Experimental: (§1) Cell culture: J-Lat Al cells (derived from Jurkat cells harboring HIV LTR-Tat-GFP gene) and U1 cells (promonocytic cell line harboring one copy of HIV genome with defective tat gene) were obtained from NIH AIDS Reagent Program and cultured at 37° C. with 5% CO2 in RPM11640 medium containing 10% FBS and 1% penicillin-streptomycin as previously described (see G. Jiang, et al. PLoS Pathogens 11, e1005066 (2015)).
(§2) For inhibiting ACSS2 and crotonylation, cells were pretreated with ACSS2 inhibitor, AR12 (SELLECK CHEMICALS™, Houston, Tex.), for 30 minutes, followed by Na-Cro treatment for 4 or 18 hours.
(§3) Real-Time PCR Analysis: HIV gene expression was measured using real-time PCR in J-Lat Al cells treated with LRAs. Total nucleic acid was extracted using RNEASY™ Kit, genomic DNA digested using DNase I and total RNA reverse transcribed using Superscript III to synthesize cDNA. […] […] TAMRA-3′ (SEQ ID NO:3).

[2] = system: HIV LTR in J-Lat A1 cells; test: Chromatin immunoprecipitation (ChIP) at the HIV LTR; settings: pretreatment with AR12, then Na-Cro
Description: FIG. 2 is a series of images and graphs showing that histone crotonylation by sodium crotonate addition re-programs histone tails at the HIV LTR. Panel A illustrates that Na-Cro addition increased global expression of H3K4Cro, H3K4Ac, and H3K18Ac while decreasing H3K27Me3. Panel B illustrates expression of transcription factors after Na-Cro addition in J-Lat Al cells. Panels C-E illustrate that Na-Cro addition re-programmed histone tails at the HIV LTR. Chromatin immunoprecipitation (ChIP) assay was performed by using anti-H3K4Cr, anti-H3K4Ac, and anti-H3K27Me3 antibodies after J-Lat Al cells were treated with 30 mM Na-Cro for 4 hours. PCR primers were specific for the HIV LTR region.
(§4) FIG. 7 is a series of graphs showing that induction of de-crotonylation of histone tail at HIV LTR is independent of SIRTs. Panel A illustrates that J-Lat Al cells were pre-treated with either 50 μM RSV or 1 mM NAM, followed by 30 mM Na-Cro addition to reactivate latent HIV expression. Untreated controls were compared with positive controls involving individual treatment of Na-Cro, RSV, or NAM. *, p<0.05; **, p<0.01 compared with control treatment. #, p<0.05 compared with Na-Cro treatment. Panel B illustrates that gene expression of sirt1 or sirt3 was measured by RT-qPCR in J-Lat Al cells treated with either 25 μM RSV, 50 μM RSV, or 1 mM NAM. *, p<0.05 and **, p<0.01 compared with control treatment. Panels C and D illustrate that histone crotonylation induces binding of SIRT3 and SIRT1 at the HIV LTR. J-Lat Al cells were treated with 30 mM Na-Cro for 4 hours and analyzed by ChIP assays using anti-SIRT1 or anti-SIRT3 antibodies. *, p<0.05 compared with control treatment.
Chromatin Immunoprecipitation (ChIP): J-Lat Al cells (2.5 to 5 million) were utilized in ChIP assays with anti-H3K18Ac, anti-H3K4Cr, anti-H3K27Me3, anti-H3K4Ac, anti-SIRT3 (CELL SIGNALING TECHNOLOGY®), and anti-SIRT1 (CELL SIGNALING TECHNOLOGY®) antibodies. ChIP assays were performed using […]® Kit from CELL SIGNALING TECHNOLOGY® as per the manufacturer's recommendations. Samples were cross-linked using formaldehyde and 150-1000 bp fragments were made using Micrococcal Nuclease digestion and 7 cycles of 30 seconds on/30 seconds off sonication. Antibodies were used to probe respective proteins. Purification of DNA was performed using the […]® Kit Protocol. Purified ChIP DNA was used in SYBR® Green qPCR using ChIP primers specific for HIV LTR.

[3] = system: latent HIV in primary CD4+ T cells from HIV-infected patients under suppressive ART; test: HIV transcription by ddPCR in primary CD4+ T cells from HIV-infected patients; settings: 6 hours
Experimental: Panels A-C illustrate that primary CD4+ T cells were treated with […] PMA 2 plus 2 μg/ml ionomycin, 12 nM PEP005, 40 mM Na-Cro, or 12 nM PEP005 combined with 40 mM Na-Cro for 6 hours. Viral transcription from total RNA was analyzed by RT-ddPCR with primers targeting initiation (TAR region) (see panel A), elongation (long LTR) (see panel B), or full transcription (poly A region) (see panel C) of the HIV genome. Panel D illustrates a working model of epigenetic regulation of HIV latency/transcription by histone crotonylation.
To validate this finding in the ex vivo primary CD4+ T cells from patients the peripheral blood samples from 6 HIV-infected patients under suppressive ART were obtained. They had undetectable plasma viral load (<20 copies/ml plasma) and >400 CD4+ T cell number per […] (see Table 1). Primary CD4+ T cells were treated with PMA/Ionomycin, PEP005, Na-Cro, or PEP005 in combination with Na-Cro for 6 hours. HIV transcription following reactivation was measured by digital droplet PCR (ddPCR) targeting TAR region (initiation), long LTR region (elongation), or Poly A region (full transcription) of HIV genome (see G. Jiang, et al. PLoS pathogens 11, e1005066 (2015); P. Kaiser, et al. Journal of virological methods 242, 1-8 (2017); and L. Shan, et al. Journal of Virology 87, 6521-6525 (2013)).
Primary CD4+ T Cell Isolation, Treatment, and Digital Droplet PCR Assays: Peripheral blood samples were obtained from HIV-infected individuals (age ranging from 46-62 years old) on suppressive ART for >8 years (n=6). The plasma viral loads were below the detective level (<20 copies/ml plasma) and the average CD4+ T cell number was 664.4±180.5 cells/ml. The primary CD4+ T cells were isolated using the EASYSEP™ kit ([…]™ Technologies Inc., Vancouver, BC, Canada) as previously described (see G. Jiang, et al. PLoS pathogens 11, el 005066 (2015) and G. Jiang, et al. AIDS 28, 1555-1566 (2014)). The purified CD4+ T cells were plated at a density of 0.5-1×10^6 cells and treated with Control, 200 ng/ml PMA plus 2 μM lonomycin, 12 nM PEP005, 40 mM Na-Cro, or 12 nM PEP005 plus 40 mM Na-Cro for 6 hours. Cell pellets were collected for RNA isolation. Initiation, elongation, or full transcription of HIV was analyzed with ddPCR assays as reported before (see G. Jiang, et al. PLoS pathogens 11, e1005066 (2015); P. Kaiser, et al. Journal of virological methods 242, 1-8 (2017); and L. Shan, et al. Journal of virology 87, 6521-6525 (2013)).

sirt3 = sirt3 gene expression by RT-qPCR in J-Lat A1 cells; settings: 25 μM or 50 μM RSV
Experimental: as §4

[4] = system: latent HIV in resting CD4+ T cells from HIV-infected individuals under ART; test: Quantitative Viral Outgrowth Assay (QVOA), p24 ELISA; settings: resting CD4+ T cells from 5 HIV-infected individuals under ART; ex vivo
Experimental: It was tested whether the histone crotonylation inducer, sodium crotonate, can reactivate latent HIV reservoirs from a patient under ART. Peripheral blood samples were obtained from 5 HIV-infected individuals with undetectable plasma viral loads and higher CD4+ T cell numbers (see Table 1). One million resting CD4+ T cells were treated with IL-2, PHA+IL-2, or IL-2+Na-Cro, and HIV p24 production was measured by QVOA using p24 ELISA as a measure of HIV reactivation.
Quantitative Viral Outgrowth Assay: Peripheral blood mononuclear cells (PBMC) were obtained from HIV-infected individuals on suppressive ART (n=5) by continuous-flow leukopheresis. Isolation of resting CD4+ T cells and quantification of replication competent virus was performed as previously described (see S. Dandekar, et al. Current HIV/AIDS reports 4, 10-15 (2007)). […] Cultures were scored as positive if p24 was detected at day 15 and was increased in concentration at day 19. […]

latent HIV in U1 cells = test: Reactivation of latent HIV in U1 cells by RT-qPCR
Experimental: as §1, §2, §3

[5] = primary CD4+ T cells of 6 patients, 40 mM Na-Cro or 12 nM PEP005, ddPCR

With `NCC(=O)Nc1ccc(-n2nc(C(F)(F)F)cc2-c2ccc3c(ccc4ccccc43)c2)cc1` [AR12, reference compound] the “decrease in latent HIV reactivation by Na-Cro” value ([1]; pretreatment with AR12 for 30 minutes, then Na-Cro) was greater than 60% and the “histone crotonylation at HIV LTR” value [2] was “markedly dampened”.

With `Nc1ncn([C@H]2C[C@H](O)[C@@H](CO)O2)c(=O)n1` [AZA-dC] the “reactivation of latent HIV by epigenetic modifiers” value ([1]; J-Lat A1 cells) was “minimally reactivated latent HIV”.

For `CCCc1cc(C)[nH]c(=O)c1CNC(=O)c1cc(-c2ccnc(N3CCN(C)CC3)c2)cc2c1cnn2C(C)C` [GSK343], the “synergistic effect on HIV reactivation in combination with Na-Cro” value ([1]; J-Lat A1 cells) was “did not show any synergistic effect” and the “reactivation of latent HIV by epigenetic modifiers” value ([1]; J-Lat A1 cells) was “minimally reactivated latent HIV”.

For `Cc1sc2c(c1C)C(c1ccc(Cl)cc1)=N[C@@H](CC(=O)OC(C)(C)C)c1nnc(C)n1-2` [JQ1], the “increase in reactivation of latent HIV in combination with Na-Cro as compared to single treatment” value (“increase in reactivation of latent HIV” below) [1] was 1.8 fold.

For `NC(=O)c1cccnc1` [NAM, nicotinamide], the “viral reactivation after pretreatment” value ([1]; J-Lat A1 cells, 1 mM NAM pretreatment then 30 mM Na-Cro) was “less than 4 fold”.

In the case of `C/C=C(/C)C(=O)O[C@H]1C(C)=C[C@]23C(=O)[C@@H](C=C(CO)[C@@H](O)[C@]12O)[C@H]1[C@@H](C[C@H]3C)C1(C)C` [PEP005, ingenol-3-angelate], the “elongation of HIV transcripts (long LTR), patients responding” value [3, 5] is reported as 5 of 6 patient samples, the “full-length transcription of HIV (poly A region), patients responding” value [3, 5] is reported as 5 of 6 patient samples and the “initiation of HIV transcription (TAR region), patients responding” value [3, 5] is reported as “all six patients”. For the same compound, the “reactivation of latent HIV, combination of Na-Cro with PEP005” value ([3]; primary CD4+ T cells, 12 nM PEP005 combined with 40 mM Na-Cro, also higher than PMA/Ionomycin) was “greater reactivation of latent HIV than either agent alone” and the “increase in reactivation of latent HIV” value [1] was 8 fold.

With `Oc1ccc(C=Cc2cc(O)cc(O)c2)cc1` [RSV, Resveratrol] the “increase in expression of sirt3” value (sirt3) was “two to three” and the “crotonyl-CoA-mediated latent HIV reactivation after pretreatment” value ([1]; J-Lat A1 cells, 50 μM RSV pretreatment then 30 mM Na-Cro, compared to crotonyl-CoA alone) was 27 fold.

In the case of `O=C(CCCCCCC(=O)Nc1ccccc1)NO` [SAHA, suberoylanilide hydroxamic acid], the “replication-competent HIV recovered (HIV reactivation, QVOA)” value [4] is reported as “able to flush out the latent HIV in these patient cells except for one patient”, the “HIV reactivation, pretreatment with SAHA followed by Na-Cro addition” value (latent HIV in U1 cells; 500 nM SAHA then 40 mM Na-Cro) is reported as “abolished the combination effect” and the “HIV reactivation, pretreatment with Na-Cro then SAHA, compared with SAHA alone” value (latent HIV in U1 cells; 40 mM Na-Cro then 500 nM SAHA, overnight, real-time PCR) is reported as “enhanced SAHA-reactivation of latent HIV”. For the same compound, the “increase in reactivation of latent HIV” value [1] was 2.0 fold, the “HIV reactivation, pretreatment with SAHA followed by Na-Cro addition” value ([1]; J-Lat A1 cells, 250 nM SAHA then 40 mM Na-Cro overnight) was “abolished the combination effect” and the “reactivation of latent HIV by epigenetic modifiers” value ([1]; J-Lat A1 cells) was “comparable capacity to reactivate latent HIV”.

For `CCC/C=C/C=C/C(=O)O[C@H]1/C(=C/C(=O)OC)C[C@H]2C[C@H]([C@@H](C)O)OC(=O)C[C@H](O)C[C@@H]3C[C@H](OC(C)=O)C(C)(C)[C@](O)(C[C@@H]4C/C(=C/C(=O)OC)C[C@H](/C=C/C(C)(C)[C@]1(O)O2)O4)O3` [bryostatin-1], the “increase in reactivation of latent HIV” value [1] was 3.3 fold.
